Measurements: publication PMC9699089 (Pathogens, 2022)
Where two headings read alike, the source gives them in different places.

How the values were obtained:
[1] = tested on: Plasmodium falciparum CQ-sensitive strain 3D7; assay: In vitro antiplasmodial activity, SYBR Green I fluorescence-based method, strain 3D7; assay type: cell-based; conditions: CQ-sensitive strain 3D7, 48 h incubation, mean of three independent experiments, read-out: P. falciparum Strains IC50 Values 3D7
Method: The in vitro antiplasmodial activities were tested over concentrations ranging from 39 nM to 40 µM against culture-adapted Plasmodium falciparum reference strains 3D7 and W2. […] These two strains are obtained from the collection of the National Museum of Natural History (Paris, France). The parasites were cultivated in RPMI medium (Sigma Aldrich, Lyon, France) supplemented with 0.5% Albumax I (Life Technologies Corporation, Paisley, UK), hypoxanthine (Sigma Aldrich), and gentamicin (Sigma Aldrich) with human erythrocytes and were incubated at 37 °C in a candle jar, as described previously. The P. falciparum drug susceptibility test was carried out in 96-well flat bottom sterile plates in a final volume of 250 µL. After 48 h incubation period with the drugs, quantities of DNA in treated and control cultures of parasites in human erythrocytes were quantified using the SYBR Green I (Sigma Aldrich) fluorescence-based method. Briefly, after incubation, plates were frozen at -20 °C until use. Plates were then thawed for 2 h at room temperature, and 100 µL of each homogenized culture was transferred to a well of a 96-well flat bottom sterile black plate (Nunc, Inc.) that contained 100 µL of the SYBR Green I lysis buffer (2xSYBR Green, 20 mM Tris base pH 7.5, 5 mM EDTA, 0.008% w/v saponin, 0.08% w/v Triton X-100). […] Plates were incubated for 1 h at room temperature and then read on a fluorescence plate reader (Tecan, Austria) using excitation and emission wavelengths of 485 and 535 nm, respectively.

[2] = tested on: human telomeric sequence F21T G-quadruplex; assay: FRET melting assay, F21T; assay type: binding; conditions: compound 2 μM, oligonucleotide 0.2 μM, K+ conditions
Method: These were performed with dual-labeled oligonucleotides mimicking the Plasmodium telomeric sequences FPf1T [FAM-5′(GGGTTTA)3-GGG3′-TAMRA] and FPf8T [FAM-5′(GGGTTCA)3GGG3′-TAMRA], the Trypanosoma 9 and 11 chromosomic sequence FTrypBT (also named FEBR1T) [FAM-5′[…]3′-TAMRA], the human telomeric sequence F21T [FAM-(GGGTTA)3-GGG3′-TAMRA] and the human duplex sequence FdxT [FAM5′-[…]-hexaethyleneglycol-[…]3′-TAMRA] [27, 31, 47]. The oligonucleotides were pre-folded in 10 mM lithium cacodylate buffer (pH 7.2), with 10 mM KCl and 90 mM LiCl (K^+ condition). The FAM emissions were recorded at 516 nm using a 492-nm excitation wavelength in the absence and presence of a single compound as a function of temperature (25 to 95 °C) in 96-well microplates using a Stratagene MX3000P real-time PCR device at a rate of 1 °C∙min-1. Data were normalized between 0 and 1, and the required temperature for half-denaturation of oligonucleotides corresponding to the emission value of 0.5 was taken as the Tm. Each experiment was performed in duplicate with 0.2 µM of labeled oligonucleotide and 2 µM of compound under K^+ condition. For each compound, three independent experiments were carried out.

[3] = molecular target: G4-forming oligonucleotide Pf1 (d[(G3T3A)3G3]); assay: Native electrospray mass spectrometry, Pf1; assay type: binding, Plasmodium; design: key to Kd Pf1, stoichiometry 1 (Kd1) / Kd Pf1, stoichiometry 2 (Kd2): n.b.: no binding detected; <LOQ: binding detected but below limit of quantitation; conditions: 100 mM TMAA, 1 mM KCl
Method: (§1) Oligonucleotides were purchased in the lyophilized form from Eurogentec (RP-cartridge purification), and dissolved at 1 mM in pure water. TMAA (1 M) was purchased from Santa Cruz Biotechnology and potassium chloride (purity > 99.99%) from Sigma Aldrich (Sigma Aldrich, Saint-Quentin-Fallavier, France). The sample solutions contained 10 µM oligonucleotide and 10 (for CD only) or 20 µM ligand, in a 100 mM TMAA, 1mM KCl buffer. The solutions were incubated overnight at 4 °C before analysis.
(§2) The sample solutions were injected at a 10 µM strand concentration on an Agilent 6560 DTIMS-Q-TOF instrument (Agilent Technologies, Santa Clara, CA, USA), equipped with a dual-ESI source operated in the negative ion mode in soft conditions. The following parameters were used: fragmentor 320 V, trap fill time 1000 µs, trap release time 200 µs, trap entrance grid delta 2 V. The drift tube was filled with helium and the pressure was fixed at 3.89 ± 0.01 Torr (measured by a capacitance diaphragm gauge CDG-500, Agilent Technologies).
(§3) The MS data were extracted using the IM-MS Browser (v. B.08.00; Agilent Technologies). The peak area intensity of each species at the 5- charge state was extracted from their corresponding m/z range (encompassing potassium adducts), and baseline subtracted. The concentrations of all species (free DNA, free ligands, and complexes) and corresponding dissociation constants were determined as previously described.

[4] = molecular target: duplex-forming sequence DK66; assay: Native electrospray mass spectrometry, DK66; assay type: binding; design: key to Kd DK66, stoichiometry 2 (Kd2) / Kd DK66, stoichiometry 1 (Kd1): n.b.: no binding detected; <LOQ: binding detected but below limit of quantitation; conditions: 100 mM TMAA, 1 mM KCl; for Kd: read-out: Kd DK66, stoichiometry 1 (Kd1); for Kd DK66, stoichiometry 2 (Kd2): 2:1 ligand:DNA complex
Method: as §1, §2, §3

[5] = tested on: T. brucei brucei AnTat 1.9; assay: In vitro antitrypanosomal activity, Alamar Blue assay; assay type: cell-based, Trypanosoma brucei brucei; conditions: Trypanosoma brucei, slender bloodstream trypomastigotes, AnTat 1.9 strain; mean +/- SD of three independent experiments; read-out: Trypanosoma brucei brucei IC50 Values Trypanos Antat 1.9
Procedure, shortened: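 Bloodstream T. brucei brucei AnTat 1.9 cultured in supplemented MEM with Earle's salts and exposed to compounds in duplicate for 69 h at 37 °C. Alamar Blue then added for 5 h, with fluorescence read at ex 530/em 590 nm.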

[6] = molecular target: G4-forming oligonucleotide Pf8 (d[(G3T2CA)3G3]); assay: Native electrospray mass spectrometry, Pf8; assay type: binding, Plasmodium; conditions: 100 mM TMAA, 1 mM KCl
Method: as §1, §2, §3

[7] = 1:1 ligand:DNA complex, read-out: Kd Pf1, stoichiometry 1 (Kd1)
[8] = 1:1 ligand:DNA complex, read-out: Kd Pf8, stoichiometry 1 (Kd1)
[9] = 2:1 ligand:DNA complex, read-out: Kd Pf8, stoichiometry 2 (Kd2)
[10] = 2:1 ligand:DNA complex, read-out: Kd Pf1, stoichiometry 2 (Kd2)

Compound | IC50 [1] [µM] | ΔTm F21T [2] [°C] | Kd [3, 7] [µM] | Kd Pf1, stoichiometry 2 (Kd2) ([3]; 2:1 ligand:DNA complex) | Kd ([4]; 1:1 ligand:DNA complex) [µM] | Kd DK66, stoichiometry 2 (Kd2) [4] | IC50 [5] [µM] | Kd [6, 8] [µM] | Kd [6, 9] [µM] | Kd [3, 10] [µM] | Kd Pf1, stoichiometry 1 (Kd1) ([3]; 1:1 ligand:DNA complex) | Kd DK66, stoichiometry 1 (Kd1) ([4]; 1:1 ligand:DNA complex) | Kd Pf8, stoichiometry 1 (Kd1) ([6]; 1:1 ligand:DNA complex)
CN(C)CCCCNCc1cc(-c2ccccc2)c2ccc3c(-c4ccccc4)cc(CNCCCCN(C)C)nc3c2n1 [Compound 1c, 2,9-Bis[(4-dimethylaminobutyl)aminomethyl]-4,7-diphenyl-1,10-phenanthroline] | 10.3 ± 2.13 | 13.2 | 23 | n.b. | 110 | n.b. | 0.86 ± 0.16 | 3 | 50 | – | – | – | –
CN(C)CCCCCNCc1cc(-c2ccccc2)c2ccc3c(-c4ccccc4)cc(CNCCCCCN(C)C)nc3c2n1 [Compound 1d, 2,9-Bis[(5-dimethylaminopentyl)aminomethyl]-4,7-diphenyl-1,10-phenanthroline] | 4.79 ± 0.5 | 18.1 | 8 | – | 53 | n.b. | 1.42 ± 0.1 | 3 | 16 | 24 | – | – | –
c1ccc(-c2cc(CNCCCN3CCCC3)nc3c2ccc2c(-c4ccccc4)cc(CNCCCN4CCCC4)nc23)cc1 [Compound 1l] | 9.91 ± 1.73 | 14.5 | 10 | – | 55 | n.b. | 1.13 ± 0.06 | 2 | 59 | 37 | – | – | –
c1ccc(-c2cc(CNCCc3ccccn3)nc3c2ccc2c(-c4ccccc4)cc(CNCCc4ccccn4)nc23)cc1 [Compound 1m] | 0.47 ± 0.12 | 1.0 | – | – | – | – | – | 83 | – | – | n.b. | n.b. | very weakly bound
